According to patent US20250122190A1, “HALOGEN-SUBSTITUTED PYRIDAZINONE COMPOUND AND APPLICATION THEREOF” (MEDSHINE DISCOVERY INC., priority 2021, published 2025):
Like-named read-outs stand apart in the source and are kept apart here.

Key:
[1] = In vivo PK studies, intravenous injection; conditions: rat, plasma, male SD rats; for Vd: read-out: Vdss
Experimental: Male SD rats were used as test animals. After intravenous injection, the blood drug concentration of the compounds was determined and the pharmacokinetic behavior was evaluated.
Three healthy adult male SD rats were selected. The test compounds were mixed with an appropriate amount of a vehicle of the intravenous injection group and prepared into a 0.5 or 1 mg/mL clear solution, which was filtered with a […] microporous filter membrane for later use. After intravenous administration to the rats at 0.5 or 1 mg/kg, whole blood was collected at 0.083, 0.25, 0.5, 1, 2, 4, 8, 24 hours after administration and placed in EDTA-K2 anticoagulant tubes, and the mixture was vortexed thoroughly and centrifuged at 3200 g, 4° C. for 10 minutes to obtain the plasma. The LC-MS/MS method was used to determine the drug concentration, and the Phoenix WinNonlin 6.3 pharmacokinetic software was used to calculate the relevant pharmacokinetic parameters by the non-compartmental model linear logarithmic trapezoidal method. • Vehicle 1:10% DMSO/10% Kolliphor® HS 15/80% (20% sulfobutyl-β-cyclodextrin); • Vehicle 2:10% DMSO+20% polyoxyethylenated castor oil+70% water; • Vehicle 3:5% DMSO+10% Kolliphor® HS 15+85% physiological saline; • Vehicle 4:10% DMSO+60% polyethylene glycol 400+30% (10% aqueous hydroxypropyl-β-cyclodextrin solution).

[2] = biological target: T1, hTRPC5-T478C (Homo sapiens, UniProt Q9UL62); experiment: hTRPC5-T478C FLIPR calcium flux IC50 assay; format: cell-based; conditions: hTRPC5-T478C-HEK cells, Englerin A as channel agonist
T1 sequence (Q9UL62 1-973): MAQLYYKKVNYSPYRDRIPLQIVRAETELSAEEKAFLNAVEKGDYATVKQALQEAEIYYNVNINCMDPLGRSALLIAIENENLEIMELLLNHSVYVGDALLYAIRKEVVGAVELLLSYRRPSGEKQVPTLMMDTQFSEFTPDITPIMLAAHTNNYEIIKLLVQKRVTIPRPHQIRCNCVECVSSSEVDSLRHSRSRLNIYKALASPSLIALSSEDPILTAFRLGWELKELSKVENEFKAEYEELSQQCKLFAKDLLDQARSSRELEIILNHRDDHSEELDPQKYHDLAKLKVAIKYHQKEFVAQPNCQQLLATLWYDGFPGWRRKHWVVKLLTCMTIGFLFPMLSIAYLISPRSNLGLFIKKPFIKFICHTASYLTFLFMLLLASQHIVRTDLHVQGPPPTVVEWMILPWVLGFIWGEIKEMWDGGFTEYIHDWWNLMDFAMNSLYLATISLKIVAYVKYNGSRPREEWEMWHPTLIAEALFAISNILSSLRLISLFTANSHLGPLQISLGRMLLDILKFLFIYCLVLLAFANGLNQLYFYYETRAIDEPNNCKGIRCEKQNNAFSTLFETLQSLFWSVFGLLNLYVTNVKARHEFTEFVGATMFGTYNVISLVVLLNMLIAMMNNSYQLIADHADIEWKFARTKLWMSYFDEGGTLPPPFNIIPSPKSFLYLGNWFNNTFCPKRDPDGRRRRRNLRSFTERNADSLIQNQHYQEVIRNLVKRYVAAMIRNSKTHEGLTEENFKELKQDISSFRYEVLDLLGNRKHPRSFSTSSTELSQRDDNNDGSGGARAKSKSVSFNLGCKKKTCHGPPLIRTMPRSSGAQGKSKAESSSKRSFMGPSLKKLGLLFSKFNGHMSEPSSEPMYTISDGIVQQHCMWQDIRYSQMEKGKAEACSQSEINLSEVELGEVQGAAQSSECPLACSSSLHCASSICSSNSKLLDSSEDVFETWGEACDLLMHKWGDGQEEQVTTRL
Experimental: Cell culture: hTRPC5-T478C-HEK cells were cultured in a humid environment in 5% CO2 at 37° C.
Cell culture medium ingredients: • DMEM, Supplier: Gibco, Catalog No. 11965-092; • FBS, Supplier: Gibco, Catalog No. 10099-141C, Concentration: 10%; • Pen/Strep, Supplier: Invitrogen, Catalog No. 15140-122, Concentration: 1%; • Zeocin, Supplier: Invitrogen, Catalog No. R25005, Concentration: 200 μg/mL; • Blasticidin S, Supplier: Invitrogen, Catalog No. R21001, Concentration: 5 μg/mL.
In general, the TRPC5-T478C cell line was passaged three times weekly. The dilution factor for each passage was 1:3. Once the cells reached about 80% confluence in the T-75 flask, the cell line was digested with trypsin for about 1 minute and the cell suspension was removed from the flask with a pipette. Depending on the dilution ratio, the removed cell suspension would be transferred to another T-75 flask containing cell culture medium. Note that in order to maintain the logarithmic growth of the cells, the confluence of the cells should be maintained at the subconfluent stage and the cells should be passaged once every 2 to 3 days depending on the proliferation rate of the cell line.
(1) Preparation of cell plate: the cells were separated according to the above-mentioned passaging and the cell density and viability were determined using a cell counter. The volume of the cell suspension was adjusted with a cell culture medium. After the density reached to the plating density, 1 μg/mL tetracycline was added to induce hTRPC5-T478C channel expression. The induced hTRPC5-T478C cells were then seeded onto poly-D-lysine (PDL)-coated 384-well plates at a density of 20000 cells/well (30 μL/well). Then the cells were cultured overnight in a cell culture incubator.
(2) Preparation of compound plate: the compounds were generally diluted with DMSO, prepared into a mother liquor and stored in a −20° C. refrigerator. A compound plating program was set on the ECHO processor, and the compounds were plated with ECHO according to the concentration gradient that was already set. In general, 9 concentrations were included with the highest concentration at 10 μM, 3-fold dilution, and 2 replicate wells. Englerin A was used as the channel agonist.
(3) On-machine testing: the cell plates and compound plates were prepared according to the above-mentioned methods. After the cell confluence of the cell plate reached 80%-90%, the cells were removed from the incubator and the testing started. Ca5 dye (Molecular Devices #R8185) was formulated with test buffer. After the cell plate culture medium was removed with Bravo, 25 μL of Ca5 dye was added to each well, and the plate was incubated for 1 hour. After 1 hour, the cell plate and compound plate were placed in FLIPR^TETRA (Molecular Devices, USA) for FLIPR detection.
Data analysis was performed using Excel 2013 (Microsoft, USA) software and GraphPad Prism 6.01 software. The maximum signal was generated by FLIPR software. Data analysis was performed using Excel (2013) and Prism 6.01. Data quality and data stability were controlled using S/B>2.50 and Z factor>0.50. The calculation formula was as follows: S/B=Avg100%/Avg0%; Z factor=1−(3*SD100%+3*SDO %)/|Avg100%-Avg0%.

Row | SMILES | AUC(0-t) ([1]; 1 mg/kg, 1 mpk) [µM·h] | clearance ([1]; 1 mg/kg, 1 mpk) [L/h/kg] | half-life ([1]; 1 mg/kg, 1 mpk) [h] | Vd ([1]; 1 mg/kg, 1 mpk) [L/kg] | IC50 [2] [µM] | AUC(0-t) ([1]; 0.5 mg/kg, 0.5 mpk) [µM·h] | clearance ([1]; 0.5 mg/kg, 0.5 mpk) [L/h/kg] | half-life ([1]; 0.5 mg/kg, 0.5 mpk) [h] | Vd ([1]; 0.5 mg/kg, 0.5 mpk) [L/kg]
1 | Nc1nc2c(c(Sc3ccc(F)cc3C(F)(F)F)n1)CCN(c1cn[nH]c(=O)c1Cl)C2 [Compound WX013] | 9.13 | 0.236 | 2.65 | 0.88 | 0.0557 | – | – | – | –
2 | CC(F)(F)c1cc(F)ccc1Oc1ncnc2c1CCN(c1cn[nH]c(=O)c1Cl)C2 [Compound WX010] | 4.75 | 0.469 | 1.73 | 1.13 | 0.071 | – | – | – | –
3 | O=c1[nH]ncc(N2CCc3c(ncnc3Oc3ccc(F)cc3Br)C2)c1Cl [Compound WX004] | 8.26 | 0.276 | 2.02 | 0.77 | 0.04 | – | – | – | –
4 | O=c1[nH]ncc(N2CCc3c(ncnc3Oc3ccc(F)cc3C(F)(F)F)C2)c1Br [Compound WX009] | – | – | – | – | 0.037 | 2.38 | 0.391 | 2.59 | 1.37
5 | COCc1nc2c(c(Oc3ccc(F)cc3C(F)(F)F)n1)CCN(c1cn[nH]c(=O)c1Cl)C2 [Compound WX011] | 4.05 | 0.497 | 1.46 | 1.06 | 0.08 | – | – | – | –

These reach a lower IC50 [2]. Values come first.

Row | AUC(0-t) ([1]; 1 mg/kg, 1 mpk) [µM·h] | clearance ([1]; 1 mg/kg, 1 mpk) [L/h/kg] | half-life ([1]; 1 mg/kg, 1 mpk) [h] | Vd ([1]; 1 mg/kg, 1 mpk) [L/kg] | IC50 [2] [µM] | AUC(0-t) ([1]; 0.5 mg/kg, 0.5 mpk) [µM·h] | clearance ([1]; 0.5 mg/kg, 0.5 mpk) [L/h/kg] | half-life ([1]; 0.5 mg/kg, 0.5 mpk) [h] | Vd ([1]; 0.5 mg/kg, 0.5 mpk) [L/kg] | SMILES
6 | 1.97 | 1.09 | 1.83 | 2.28 | 0.027 | – | – | – | – | O=c1[nH]ncc(N2CCc3c(ncnc3Sc3ccc(F)cc3C(F)(F)F)C2)c1Cl [Compound WX002]
7 | 3.33 | 0.606 | 2.31 | 1.62 | 0.024 | – | – | – | – | O=c1[nH]ncc(N2CCc3c(nc(CO)nc3Sc3ccc(F)cc3C(F)(F)F)C2)c1Cl [Compound WX012]
